Reference: patent US20250163387A1, “HUMAN PITUITARY NEUROENDOCRINE TUMOR ORGANOIDS AND METHODS OF MAKING AND USING THE SAME” (ARIZONA BOARD OF REGENTS OF THE UNIVERSITY OF ARIZONA, A …, priority 2022, published 2025)
Numbered stars: 1 amine (or outer) side, 2 acyl side, 3 side chain; on linkers, the order of the positions; unused ones are H or OH. Square brackets hold non-standard residues; d marks the D form. Side chains are listed from the residue outwards. Peptide text beside a SMILES is read from it. * marks the point of attachment. Ethylenediamine = C(CN[*:2])N[*:1]; Hyp = O=C(O)[C@@H]1C[C@@H](O)CN1; Phg = N[C@H](C(=O)O)c1ccccc1; CO = O=C([*:1])[*:2]; Bn = c1ccc(C*)cc1

Legend:
[1] = tested on: SSTR2; assay: Differential expression of SSTR2 in iPSC generated pituitary tumor organoids; assay type: cell-based, human; details: iPSC organoids (ctrl, USP48MI, USP48MV, USP8); 500 nM; vs vehicle
[2] = tested on: iPSC^USP48MV organoids; assay: Nuclear irregularity index (NII) morphometric analysis; assay type: cell-based, human; details: 500 nM
Method: (§1) Nuclear Morphometric Analysis (NMA) using treated organoids was performed based on a published protocol that measures cell viability based on the changes in nuclear morphology of the cells using nuclear stain Hoechst or DAPI [30]. Images of organoid nuclei were analyzed using the ImageJ Nuclear Irregularity Index (NII) plugin for key parameters that included cell area, radius ratio, area box, aspect, and roundness. Using the published spreadsheet template, the NII of each cell was calculated with the following formula: NII=Aspect−Area Box+Radius Ratio+Roundness. The area vs NII of vehicle-treated cells were plotted as a scatter plot using the template and considered as the normal cell nuclei. The same plots were generated for each condition, and the NII and area of treated cells were compared to the normal nuclei, and classified as one of the following NMA populations: Normal (N; similar area and NII), Mitotic (S; similar area, slightly higher NII), Irregular (I; similar area, high NII), Small Regular (SR; apoptotic, low area and NII), Senescent (LR; high area, low NII), Small Irregular (SI; low area, high NII), or Large Irregular (LI; high area, high NII). […] The percentage of cells in each NII classification category were calculated and plotted as a histogram using GraphPad Prism.

[3] = tested on: iPSC^ctrl organoids; assay: as above; assay type: cell-based, human; details: 500 nM
Method: as §1

[4] = tested on: FKBP5; assay: GR modulation: GR target gene FKBP5 expression in PitNET organoids; assay type: cell-based, human
[5] = tested on: hPITO37; assay: Spectral flow cytometry (SSTR2, SSTR5, ACTH, zombie); assay type: cell-based, human; details: Mife 2.85 nM
Method: (§2) The multicolor flow cytometry panel was designed using the Cytek®Full Spectrum Viewer online tool to calculate the similarity index. The organoids were harvested in cold SFDM media and centrifuged at 400×g for 5 minutes. Supernatant was discarded and organoids were dissociated to single cells using Accutase® (Thermo Fisher Scientific 00-4555-56). The enzymatic reaction was stopped using prewarmed DPBS and cells were then centrifuged at 400×g for 5 minutes and incubated with fluorochrome-conjugated/unconjugated primary surface or cytoplasmic antibodies at 4° C. for 30 minutes. Cells were then washed with Cell Staining Buffer (BioLegend #420-201) and incubated with secondary antibodies at 4° C. for 30 minutes. Cells were fixed using Cytofix/Cytoperm™ Fixation/Permeabilization Solution (BD Biosciences #554714) at 4° C. for 20 minutes, followed by washing with Fixation/Permeabilization wash buffer. Cells were then labeled with fluorochrome-conjugated/unconjugated intracellular primary antibodies at 4° C. for 30 minutes, washed and incubated with secondary antibodies at 4° C. for 30 minutes. Cells resuspended in cell staining buffer and fluorescence measured using the Cytek Aurora 5 Laser Spectral Flow Cytometer. An unstained cell sample was fixed and used as reference control. UltraComp eBeads™, Compensation Beads (Thermo Fisher Scientific #01-2222-42) were stained with the individual antibodies and used as single stain control for compensation and gating. Data was acquired using the Cytek™ Aurora and analyzed using Cytobank software (Beckman Coulter, Indianapolis, IN).

[6] = tested on: iPSC^USP48MV organoids; assay: as above; assay type: cell-based, human; details: Rela 500 nM, Mife 500 nM
Method: as §2

[7] = tested on: SSTR5; assay: Differential expression of SSTR5 in iPSC generated pituitary tumor organoids; assay type: cell-based, human; details: iPSC organoids (ctrl, USP48MI, USP48MV, USP8); 500 nM; vs vehicle
[8] = tested on: iPSC^USP48MV organoids; assay: Proliferation by EdU uptake; assay type: cell-based, human
Method: (§3) Organoids were immunostained using published protocols by our laboratory. Proliferation was measured by using 5-ethynyl-2'-deoxyuridine (EdU) incorporation according to the Manufacturer's protocol (Click-IT EdU Alexa Fluor 555 Imaging Kit, Thermo Fisher Scientific C10338). Costaining was performed by blocking fixed organoids with 2% donkey serum (Jackson Immuno Research, #017-000-121) diluted in 0.01% PBST for 1 hr. at room temperature. Organoids were then incubated overnight at 4° C. with primary antibodies followed by secondary antibodies and Hoechst (Thermo Fisher Scientific H1399, 1:1000 in 0.01% PBST) for 1 hr at room temperature. Human specific primary antibodies used included: rabbit anti-ACTH (Thermo Fisher Scientific 701293, 1:250), rabbit anti-Synaptophysin (Thermo Fisher Scientific PA5-27286, 1:100), […] (Thermo Fisher Scientific PA5-98650, 1:50), rabbit anti-LH (Thermo Fisher Scientific PA5-102674, 1:100), mouse anti-FSH (Thermo Fisher Scientific MIF2709, 1:100), mouse anti-PRL (Thermo Fisher Scientific CF500720, 1:100), Alexa Flour conjugated GH (NB500-364AF647, 1:100) and mouse anti-CAM5.2 (SIGMA […]-95, 1:250). The secondary antibodies used included Alexa Fluor 488 Donkey Anti Rabbit IgG (H+L) (Thermo Fisher Scientific A21206, 1:100) or Alexa Fluor 647 Donkey Anti Mouse IgG (H+L) (Thermo Fisher Scientific A31571, 1:100). Organoids were visualized and images acquired by confocal microscopy using the Nikon CrestV2 Spinning Disk. Fluorescence intensity and percentage of EdU positive cells of total cells, were calculated using Nikon Elements Software (Version 5.21.05).

[9] = tested on: iPSC^ctrl organoids; assay: Proliferation by EdU uptake; assay type: cell-based, human
Method: as §3

[10] = tested on: macroadenomas; details: patients with macroadenomas; relacorilant for three months; cited from earlier work
[11] = tested on: pancreatic and ovarian cancer cell lines; details: cited from earlier work
[12] = tested on: hPITO35; details: hPITO35; 72 hours; MTS cell viability
Method: (§4) Organoids were grown in Matrigel™ domes within 96-well round-bottom culture plates. Recombinant human SHH was removed from the pituitary organoid growth media, 24 hrs. prior to drug treatment. Organoids were treated with either vehicle (DMSO), cabergoline (Selleckchem S5842), ketoconazole (Selleckchem S1353), roscovitine (Selleckchem S1153), GANT61 (Stemcell Technologies 73692), pasireotide (TargetMol TP2207), mifeprostone (Selleckchem S2606), etomidate (Selleckchem S1329), mitotane (Selleckchem S1732), metyropane (Selleckchem S5416), or osilodrostat (Selleckchem S7456) at concentrations of 0, 1, 10, 100, 1000, and 10000 nM for 72 hours. Percent cell viability was measured using an MTS assay (Promega G3580). Absorbance was measured at 490 nm and normalized to the vehicle. Concentrations were plotted in a logarithmic scale, and a nonlinear dose-response curve regression was calculated using GraphPad Prism. An IC50 value for each drug treatment was determined based on the dose response curve using GraphPad Prism analysis software.

[13] = tested on: hPITO34; details: hPITO34; 72 hours; MTS cell viability
Method: as §4

[14] = target: SSTR5 (Homo sapiens, UniProt P35346); details: cited from earlier work
Sequence of SSTR5 (Homo sapiens, UniProt P35346) (P35346 whole entry): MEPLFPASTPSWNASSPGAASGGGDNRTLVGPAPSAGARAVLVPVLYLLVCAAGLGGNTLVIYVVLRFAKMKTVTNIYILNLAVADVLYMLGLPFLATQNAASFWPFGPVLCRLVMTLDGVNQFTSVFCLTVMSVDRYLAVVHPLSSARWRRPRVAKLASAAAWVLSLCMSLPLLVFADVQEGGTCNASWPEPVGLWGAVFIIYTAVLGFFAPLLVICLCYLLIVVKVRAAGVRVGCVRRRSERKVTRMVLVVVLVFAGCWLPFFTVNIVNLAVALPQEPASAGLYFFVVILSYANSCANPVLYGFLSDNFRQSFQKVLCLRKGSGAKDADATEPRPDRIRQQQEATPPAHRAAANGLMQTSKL

[15] = monotherapy; cited from earlier work
[16] = tested on: hPITO33; assay: Drug dose response, MTS cell viability assay; assay type: cell-based, human; details: hPITO33; 72 hours; MTS cell viability
[17] = tested on: iPSC^USP48MV organoids; assay: ACTH secretion ELISA of conditioned media; assay type: cell-based, human
Method: (§5) Concentration of secreted ACTH in conditioned media that was collected from organoid cultures was measured using the Human ACTH ELISA Kit (Novus Biologicals, NBP2-66401) according to the manufacturer's protocol. The enzyme-substrate reaction was measured spectrophotometrically (BioTek Gen5 Micro Plate Reader Version 3.11) at a wavelength of 450 nm and the ACTH concentration (pg/mL) was interpolated using a standard curve with a 4-parameter logistic regression analysis using GraphPad Prism (Version 9.2.0).

[18] = tested on: iPSC^ctrl organoids; assay: ACTH secretion ELISA of conditioned media; assay type: cell-based, human
Method: as §5

[19] = greater magnitude than Octreotide plus relacorilant

SMILES: Cn1cc(S(=O)(=O)N2CCC3=Cc4c(cnn4-c4ccc(F)cc4)C[C@]3(C(=O)c3cc(C(F)(F)F)ccn3)C2)cn1 [relacorilant]
- expression of SSTR2 [1]: significant induction
- apoptotic cells by nuclear morphology (NII) [2]: increased apoptotic cells
- apoptotic cells by nuclear morphology (NII) [3]: not observed
- differential expression of FKBP5 [4]: significantly reduced
- cell death (Zombie positive cells) ([5]; Pas 837.5 nM, Rela 382 nM): significant increase
- percentage of SSTR2 positive cells ([5]; Rela 382 nM, vs Veh): significant increase
- percentage of SSTR5 positive cells ([5]; Rela 382 nM, vs Veh): significant increase
- ACTH positive cells ([6]; Pas 100 nM): did not significantly increase
- cell death (Zombie positive cells) ([6]; Pas 100 nM): significant increase
- percentage of SSTR2 positive cells ([6]; vs Veh): significant increase
- percentage of SSTR5 positive cells ([6]; vs Veh): significant increase
- expression of SSTR5 [7]: significant induction
- cell proliferation (EdU uptake) ([8]; drug alone, 500 nM): did not induce organoid proliferation
- cell proliferation (EdU uptake) ([9]; drug alone, 500 nM): did not induce organoid proliferation
- tumor (macroadenoma) regression [10]: tumor regression in two patients
- apoptosis in vitro [11]: induces apoptosis

SMILES: NCCCC[C@@H]1NC(=O)[C@@H](Cc2c[nH]c3ccccc23)NC(=O)[C@H](c2ccccc2)NC(=O)[C@@H]2C[C@@H](OC(=O)NCCN)CN2C(=O)[C@H](Cc2ccccc2)NC(=O)[C@H](Cc2ccc(OCc3ccccc3)cc2)NC1=O [Pasireotide] (cyclo([Hyp]([CO-Ethylenediamine])[Phg][dW]KY(Bn)F))
- IC50 [12]: 1 µM
- IC50 [13]: 0.0061 µM
- binding to SSTR5 [14]: high-affinity binding
- patients with CD in whom cortisol is normalized [15]: up to 42%
- effect of pretreatment on Mife-increased number of ACTH expressing cells ([5]; Pas 837.5 nM): not inhibited
- IC50 [16]: 1.2 µM
- effect of pretreatment on the proliferative response to Mife ([8]; 100 nM): no effect
- effect of pretreatment on the proliferative response to Mife ([9]; 100 nM): no effect
- effect on ACTH secretion in response to Mifepristone ([17]; 100 nM with Mife 500 nM): significantly reduced
- hormone (ACTH) secretion in combination with relacorilant [17, 19]: reduced hormone secretion
- effect on ACTH secretion in response to Mifepristone ([18]; 100 nM with Mife 500 nM): significantly reduced
- hormone (ACTH) secretion in combination with relacorilant [18, 19]: reduced hormone secretion
